Reference: patent US11584714B2 (priority 2018, dated 2023)
Where a name gives a salt, the structure may show the parent alone. Read-outs that look alike come from different tables or passages of the source.

What was measured:
Type in all cases: biochemical
MASP-2 (CCP1-CCP2-SP) = MASP-2 (CCP1-CCP2-SP) (Homo sapiens (Human), UniProt O00187); assay: biochemical
mMASP-2 = mMASP-2 (Mus musculus (Mouse), UniProt Q91WP0); assay: Enzymatic inhibition of mMASP-2; conditions: read-out: mMASP-2 Ki
human α-thrombin = human α-thrombin (Homo sapiens (Human), UniProt P00734); assay: Enzymatic assay for thrombin (Boc-VPR-AMC substrate)
[1] = selectivity for MASP-2 inhibition versus thrombin
[2] = MASP-2 inhibition versus thrombin

Sequence of mMASP-2 (Q91WP0 20-685): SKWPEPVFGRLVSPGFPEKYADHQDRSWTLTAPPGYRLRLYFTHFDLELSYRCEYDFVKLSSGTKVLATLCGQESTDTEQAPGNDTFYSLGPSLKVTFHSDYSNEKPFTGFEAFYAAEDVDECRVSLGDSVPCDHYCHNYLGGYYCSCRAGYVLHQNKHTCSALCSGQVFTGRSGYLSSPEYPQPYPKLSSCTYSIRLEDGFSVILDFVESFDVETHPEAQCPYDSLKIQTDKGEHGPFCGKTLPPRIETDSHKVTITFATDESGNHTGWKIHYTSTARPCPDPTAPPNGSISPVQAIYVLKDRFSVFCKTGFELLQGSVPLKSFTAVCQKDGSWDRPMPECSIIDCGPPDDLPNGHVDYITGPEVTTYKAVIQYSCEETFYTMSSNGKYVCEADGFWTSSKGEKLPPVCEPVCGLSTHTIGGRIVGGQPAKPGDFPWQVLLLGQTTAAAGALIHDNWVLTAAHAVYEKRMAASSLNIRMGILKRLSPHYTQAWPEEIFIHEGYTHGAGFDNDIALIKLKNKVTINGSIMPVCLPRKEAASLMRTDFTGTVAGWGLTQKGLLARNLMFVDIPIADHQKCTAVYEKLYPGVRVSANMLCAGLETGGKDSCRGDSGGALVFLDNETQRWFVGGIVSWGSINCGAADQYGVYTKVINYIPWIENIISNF
Sequence of MASP-2 (CCP1-CCP2-SP) (O00187 445-686): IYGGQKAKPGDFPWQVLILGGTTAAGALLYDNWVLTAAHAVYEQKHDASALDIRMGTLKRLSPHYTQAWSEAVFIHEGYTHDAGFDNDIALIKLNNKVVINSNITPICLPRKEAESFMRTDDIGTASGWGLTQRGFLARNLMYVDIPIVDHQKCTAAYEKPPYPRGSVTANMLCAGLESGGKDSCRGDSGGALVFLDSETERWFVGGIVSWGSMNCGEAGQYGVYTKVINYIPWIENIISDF

Structure (SMILES) | Ki (MASP-2 (CCP1-CCP2-SP)) [nM] | Ki (mMASP-2) [nM] | Ki (human α-thrombin; read-out: Thrombin Ki) [µM] | Ki (MASP-2 (CCP1-CCP2-SP); read-out: MASP-2 Ki) [nM] | MASP-2 vs. thrombin selectivity (MASP-2 (CCP1-CCP2-SP); [1]) | MASP-2 vs. thrombin selectivity (MASP-2 (CCP1-CCP2-SP); [2]) | Ki (human α-thrombin; Thrombin Ki (μM)) [µM]
C[C@H](NC(=O)[C@H]1C[C@H](c2ccccc2)CN1)C(=O)NCc1cc(N)n[nH]1 [compound 1336, (2R,4R)—N—((S)-1-(((3-Amino-1H-pyrazol-5-yl)methyl)amino)-1-oxopropan-2-yl)-4-phenylpyrrolidine-2-carboxamide Dihydrochloride] | 10000 to 25000 | > 25000 | > 25 | – | – | – | –
Cc1cc(Cl)cc(CNC(=O)[C@H](C)NC(=O)[C@H](N)CCc2ccccc2)c1O [compound 1299, (R)-2-Amino-N—((S)-1-((5-chloro-2-hydroxy-3-methylbenzyl)amino)-1-oxopropan-2-yl)-4-phenylbutanamide Hydrochloride] | – | 10000 to 25000 | > 25 | < 500 | **** (≥100-fold) | – | –
C[C@H](NC(=O)[C@@H](CCc1ccccc1)NCCc1cccc(O)c1)C(=O)NCc1ccc(C(=N)N)cc1 [compound 1330, (R)—N—((S)-1-((4-Carbamimidoylbenzyl)amino)-1-oxopropan-2-yl)-2-((3-hydroxyphenethyl)amino)-4-phenylbutanamide Di-trifluoroacetate salt] | – | < 500 | < 0.5 | < 500 | *** (≥25 to <100-fold) | – | –
Cc1cccc([C@@H]2CCN[C@@H](C(=O)N[C@@H](C)C(=O)NCc3ccc(C(=N)N)cc3)C2)c1 [compound 1241, (2R,4R)—N—((S)-1-((4-Carbamimidoylbenzyl)amino)-1-oxopropan-2-yl)-4-(m-tolyl)piperidine-2-carboxamide] | – | < 500 | < 0.5 | < 500 | * (≥1.0 to <5.0-fold) | – | –
C[C@H](NC(=O)[C@H](N)CCc1ccccc1)C(=O)NCc1cnc(N)c(Cl)c1 [compound 1275, (R)-2-Amino-N—((S)-1-(((6-amino-5-chloropyridin-3-yl)methyl)amino)-1-oxopropan-2-yl)-4-phenylbutanamide] | 500 to 2500 | > 25000 | > 25 | – | *** (≥25 to <100-fold) | – | –
C[C@H](NC(=O)[C@H]1C[C@H](c2ccccc2)CN1)C(=O)NCc1cc(Cl)cc(Cl)c1O [compound 1395, (2R,4R)—N—((S)-1-((3,5-dichloro-2-hydroxybenzyl)amino)-1-oxopropan-2-yl)-4-phenylpyrrolidine-2-carboxamide Trifluoroacetate] | 500 to 2500 | 2500 to 10000 | > 25 | – | – | – | –
COc1ccccc1CC[C@@H](N)C(=O)N[C@@H](C)C(=O)NCc1ccc(C(=N)N)cc1 [compound 1074] | – | < 500 | < 0.5 | < 500 | – | ** (5.0 to 25-fold) | –
C[C@H](NC(=O)[C@H](N)CCc1ccccc1)C(=O)NCc1ccc(CN)nc1 [compound 1280, (R)-2-Amino-N—((S)-1-(((6-(aminomethyl)pyridin-3-yl)methyl)amino)-1-oxopropan-2-yl)-4-phenylbutanamide] | 2500 to 10000 | 10000 to 25000 | > 25 | – | – | – | –
COc1cccc(CC[C@@H](N)C(=O)N[C@@H](C)C(=O)NCc2ccc(C(=N)N)cc2)c1 [compound 1075] | – | < 500 | < 0.5 | < 500 | – | ** (5.0 to 25-fold) | –
Cc1nc(N)ccc1CNC(=O)[C@H](C)NC(=O)[C@H]1C[C@H](Cc2ccc(OC(F)(F)F)c(Cl)c2)CN1 [compound 1455, (2R,4S)—N—((S)-1-(((6-Amino-2-methylpyridin-3-yl)methyl)amino)-1-oxopropan-2-yl)-4-(3-chloro-4-(trifluoromethoxy)benzyl)pyrrolidine-2-carboxamide Di-trifluoroacetate salt] | – | < 500 | > 25 | < 500 | **** (≥100-fold) | – | –
CCN1C[C@@H](Cc2ccc(Cl)c(Br)c2)C[C@@H]1C(=O)N[C@@H](C)C(=O)NCc1ccc(N)nc1C [compound 1464, (2R,4S)—N—((S)-1-(((6-Amino-2-methylpyridin-3-yl)methyl)amino)-1-oxopropan-2-yl)-4-(3-bromo-4-chlorobenzyl)-1-ethylpyrrolidine-2-carboxamide] | – | < 500 | > 25 | < 500 | – | – | –
Cc1nc(N)ccc1CNC(=O)[C@H](C)NC(=O)[C@H]1C[C@@H](c2ccccc2)CCN1CC(=O)O [compound 1398, 2-((2R,4S)-2-(((S)-1-(((6-Amino-2-methylpyridin-3-yl)methyl)amino)-1-oxopropan-2-yl)carbamoyl)-4-phenylpiperidin-1-yl)acetic acid Trifluoroacetate salt] | – | 500 to 2500 | > 25 | < 500 | – | – | –
C[C@H](NC(=O)[C@H](N)CCc1ccccc1)C(=O)NCc1cc(C#N)ccc1O [compound 1314, (R)-2-Amino-N—((S)-1-((5-cyano-2-hydroxybenzyl)amino)-1-oxopropan-2-yl)-4-phenylbutanamide Trifluoroacetate salt] | 10000 to 25000 | > 25000 | > 25 | – | * (≥1.0 to <5.0-fold) | – | –
C[C@H](NC(=O)c1nc(-c2ccccc2)cs1)C(=O)NCc1ccc(C(=N)N)cc1 [compound 1286, (S)—N-(1-((4-Carbamimidoylbenzyl)amino)-1-oxopropan-2-yl)-4-phenylthiazole-2-carboxamide] | 2500 to 10000 | < 500 | – | – | −− (<1.0-fold) | – | 0.5 to 2.5
Cc1nc(N)ccc1CNC(=O)[C@H](C)NC(=O)[C@H]1C[C@H](Cc2ccc(F)c(Cl)c2)CN1CCC(=O)O [compound 1473, 3-((2R,4S)-2-(((S)-1-(((6-Amino-2-methylpyridin-3-yl)methyl)amino)-1-oxopropan-2-yl)carbamoyl)-4-(3-chloro-4-fluorobenzyl)pyrrolidin-1-yl)propanoic acid Trifluoroacetate salt] | – | < 500 | > 25 | < 500 | – | – | –
Cc1ccccc1CC[C@@H](N)C(=O)N[C@@H](C)C(=O)NCc1ccc(C(=N)N)cc1 [compound 1045] | – | < 500 | < 0.5 | < 500 | – | ** (5.0 to 25-fold) | –
C[C@H](NC(=O)[C@H]1C[C@@H](c2ccccc2)CCN1)C(=O)NCc1ccccc1 [compound 1271, (2R,4S)—N—((S)-1-(benzylamino)-1-oxopropan-2-yl)-4-phenylpiperidine-2-carboxamide] | 2500 to 10000 | > 25000 | > 25 | – | – | – | –
C[C@H](NC(=O)[C@@H](CCc1ccccc1)NC1CCC1)C(=O)NCc1ccc(C(=N)N)cc1 [compound 1108] | – | < 500 | < 0.5 | < 500 | – | * (1.0 to 5.0-fold) | –
Cc1cc(Br)cc(CNC(=O)[C@H](C)NC(=O)[C@H]2C[C@H](Cc3ccccc3)CN2)c1-n1cnnn1 [compound 1436, (2R,4S)-4-Benzyl-N-((S)-1-((5-bromo-3-methyl-2-(1H-tetrazol-1-yl)benzyl)amino)-1-oxopropan-2-yl)pyrrolidine-2-carboxamide Trifluoroacetate] | 500 to 2500 | > 25000 | – | – | ** (≥5.0 to <25-fold) | – | 10 to 25
Cc1cc(Cl)cc(CNC(=O)[C@H](C)NC(=O)[C@H]2C[C@H](Cc3ccccc3)CN2)c1O [compound 1307, (2R,4S)-4-Benzyl-N-((S)-1-((5-chloro-2-hydroxy-3-methylbenzyl)amino)-1-oxopropan-2-yl)pyrrolidine-2-carboxamide Hydrochloride] | – | < 500 | > 25 | < 500 | **** (≥100-fold) | – | –
Cc1cc(Cl)cc(CNC(=O)[C@H](C)NC(=O)[C@H]2C[C@H](Cc3ccc(Br)cc3)CN2)c1O [compound 1374, (2R,4S)-4-(4-bromobenzyl)-N-((S)-1-((5-chloro-2-hydroxy-3-methylbenzyl)amino)-1-oxopropan-2-yl)pyrrolidine-2-carboxamide Hydrochloride] | – | < 500 | > 25 | < 500 | – | – | –
Cc1nc(N)ccc1CNC(=O)[C@H](C)NC(=O)[C@H]1C[C@H](Cc2ccc(-c3ccccc3)cc2)CN1 [compound 1351, (2R,4S)-4-([1,1′-Biphenyl]-4-ylmethyl)-N-((S)-1-(((6-amino-2-methylpyridin-3-yl)methyl)amino)-1-oxopropan-2-yl)pyrrolidine-2-carboxamide Dihydrochloride] | – | < 500 | > 25 | < 500 | **** (≥100-fold) | – | –
C[C@H](NC(=O)[C@H]1C[C@H](c2ccccc2)CN1)C(=O)NCc1cc(Cl)cc(C(N)=O)c1 [compound 1387, (2R,4R)—N—((S)-1-((3-Carbamoyl-5-chlorobenzyl)amino)-1-oxopropan-2-yl)-4-phenylpyrrolidine-2-carboxamide Trifluoroacetate salt] | 2500 to 10000 | 10000 to 25000 | > 25 | – | – | – | –
C[C@H](NC(=O)[C@H]1C[C@H](c2ccccc2)CN1)C(=O)NCc1ccc(C(=N)NC(=O)OCC(F)(F)F)cc1 [compound 1305, 2,2,2-Trifluoroethyl (imino(4-(((S)-2-((2R,4R)-4-phenylpyrrolidine-2-carboxamido)propanamido)methyl)phenyl)methyl)carbamate] | 500 to 2500 | < 500 | > 25 | – | ** (≥5.0 to <25-fold) | – | –
Cc1nc(N)ccc1CNC(=O)[C@@H]1CCCN1C(=O)[C@H]1C[C@H](Cc2ccc(Br)cc2)CN1 [compound 1465, (S)—N-((6-Amino-2-methylpyridin-3-yl)methyl)-1-((2R,4S)-4-(4-bromobenzyl)pyrrolidine-2-carbonyl)pyrrolidine-2-carboxamide Di-trifluoroacetate salt] | – | 500 to 2500 | < 0.5 | < 500 | * (≥1.0 to <5.0-fold) | – | –
